The results in this text go back to patent publication US8962609B2, “Pyrimidine compounds as inhibitors of protein kinases IKK epsilon and/or TBK-1, processes for their preparation, and pharmaceutical compositions containing them” (Domainex Limited, priority 2010, dated 2015).

Like-named read-outs stand apart in the source and are kept apart here. Bounds are passed on as bounds.

Assay [1] concerns the target Jnk1 (Homo sapiens (Human), UniProt P45983). As to the kind of experiment: Jnk1 radiolabelled P33 ATP assay (Kinase Hotspot Technology). The following applies: for inhibition at 1 µM: single point at the concentration (1000 nM), read-out: Jnk-1 percentage inhibition (in brackets); for IC50: read-out: Concentration of compounds required for ~ 50% inhibition, Jnk-1. It is filed as biochemical. As for the experimental part: (§1) The compounds of examples DMX-1,8,9,14 and 16 were tested for activity against TBK1, IKKβ, Jnk1 and Jnk3 in addition to IKK-ε and TBK-1. TBK-1, IKKβ, Jnk1 and Jnk3 were screened using radiolabelled P^33 ATP using the Kinase Hotspot Technology of Reaction Biology Corp. Screening against Jnk-1 and Jnk-3 was carried out at the Km for ATP. IKK-ε and TBK-1 screening was also carried out as described above at the Km for ATP for these enzymes. […] TBK-1, IKKβ and Jnk1 were screened using radiolabelled P^33 ATP using the Kinase Hotspot Technology of Reaction Biology Corp. IKK-ε and TBK-1 screening was also carried out as described above at the Km for ATP for these enzymes.

The target in assay [2] is TBK-1 (Homo sapiens (Human), UniProt Q9UHD2). In words: biochemical. As for the experimental part: (§2) Compounds of the invention (synthesised as described below) were tested for activity against the IKKε and TBK-1 enzyme as follows:
(§3) Inhibitions studies were performed using a time-resolved fluorescence-based Lanthascreen™ assay. Phosphorylation of a fluorescein-labelled substrate peptide is measured using terbium-labeled phosphospecific antibodies. Terbium is excited at 340 nm and the FRET energy transfer to fluorescein is measured at 495 and 520 nm. The emission ratio between 520 and 495 is a measure of the level of phosphorylation of the substrate by the kinase.
(§4) Kinase inhibition assays (10 μL) were performed at 20° C. in 384-well plate format. Compound IC50 values were determined at the apparent Km for ATP (20 μM) based on a radiometric assay (Invitrogen) using 8 or 10 point curves in duplicate. The final reaction conditions contained 400 nM fluorescein-IkBα substrate ([…]), 20 μM ATP, 2 nM or 8 nM IKKε or TBK1 kinase respectively, and 3% DMSO in kinase assay buffer consisting of 50 mM HEPES (pH 7.5), 10 mM MgCl, 1 mM EGTA, 0.01% Brij-35.
(§5) Compound dilutions were prepared from 10 mM DMSO stocks by dilution into DMSO.
(§6) The kinase phosphorylation assay was initiated by the addition of the kinase and the reaction was allowed to proceed for 1 hr or 2.5 hr for IKKε and TBK-1 kinase respectively. […] The reaction was stopped by the addition of 10 mM EDTA, and phosphorylation was detected after a 1 hr incubation with 1.5 nM terbium-labelled antibody against phosphorylation at Serine 32 on the IkBα[…]peptide, both in TR-FRET dilution buffer (Invitrogen).
(§7) In the data presented for IKKε, <9 μM means having an activity in the range from 300 nM≦9 μM; and <300 nM means having an activity in the range 30 nM≦300 nM; and for the data presented for TBK-1, <3 μM means having an activity in the range 300 nM≦3 μM, and <300 nM means having an activity in the range 30 nM≦300 nM.

For assay [3], the target named is IKKε (Homo sapiens (Human), UniProt Q14164). As to the kind of experiment: IKKε time-resolved fluorescence Lanthascreen kinase inhibition assay. It is filed as biochemical. How it is done:
as §2, §3, §4, §5, §6, §7
In general terms: TR-FRET usually uses a lanthanide donor and a delayed reading to cut background.

Assay [4] addresses IKKβ (Homo sapiens (Human), UniProt O14920). As to the kind of experiment: IKKβ radiolabelled P33 ATP assay (Kinase Hotspot Technology). It is filed as biochemical. The following applies: for inhibition at 1 µM: read-out: IKK-β percentage inhibition (in brackets); for IC50: single point, read-out: Concentration of compounds required for ~ 50% inhibition, IKK-β. How it is done: as §1

For assay [5], the target named is Jnk3 (Homo sapiens (Human), UniProt P53779). In words: Jnk3 radiolabelled P33 ATP assay (Kinase Hotspot Technology). The following applies: for IC50: at the Km for ATP, read-out: Concentration of compounds required for ~ 50% inhibition, Jnk-3. It is filed as biochemical. How it is done: as §1
The mark [6] stands for this setting: 20 μM ATP (apparent Km), 8 nM kinase, 2.5 hr, values are activity bands, read-out: Inhibition of TBK-1 IC50.
Where [7] appears, read: at the Km for ATP, read-out: Concentration of compounds required for ~ 50% inhibition, TBK-1.
[8] abbreviates: 20 μM ATP (apparent Km), 2 nM kinase, 1 hr, values are activity bands, read-out: Inhibition of IKKε IC50.
[9] abbreviates: at the Km for ATP, read-out: Concentration of compounds required for ~ 50% inhibition, IKK-ε.
[10] abbreviates: single point at the concentration (1000 nM), 10 μM ATP.
Setting [11] is: single point at the concentration (1000 nM), 1 μM ATP.

Sequence of IKKε (Q14164 whole entry): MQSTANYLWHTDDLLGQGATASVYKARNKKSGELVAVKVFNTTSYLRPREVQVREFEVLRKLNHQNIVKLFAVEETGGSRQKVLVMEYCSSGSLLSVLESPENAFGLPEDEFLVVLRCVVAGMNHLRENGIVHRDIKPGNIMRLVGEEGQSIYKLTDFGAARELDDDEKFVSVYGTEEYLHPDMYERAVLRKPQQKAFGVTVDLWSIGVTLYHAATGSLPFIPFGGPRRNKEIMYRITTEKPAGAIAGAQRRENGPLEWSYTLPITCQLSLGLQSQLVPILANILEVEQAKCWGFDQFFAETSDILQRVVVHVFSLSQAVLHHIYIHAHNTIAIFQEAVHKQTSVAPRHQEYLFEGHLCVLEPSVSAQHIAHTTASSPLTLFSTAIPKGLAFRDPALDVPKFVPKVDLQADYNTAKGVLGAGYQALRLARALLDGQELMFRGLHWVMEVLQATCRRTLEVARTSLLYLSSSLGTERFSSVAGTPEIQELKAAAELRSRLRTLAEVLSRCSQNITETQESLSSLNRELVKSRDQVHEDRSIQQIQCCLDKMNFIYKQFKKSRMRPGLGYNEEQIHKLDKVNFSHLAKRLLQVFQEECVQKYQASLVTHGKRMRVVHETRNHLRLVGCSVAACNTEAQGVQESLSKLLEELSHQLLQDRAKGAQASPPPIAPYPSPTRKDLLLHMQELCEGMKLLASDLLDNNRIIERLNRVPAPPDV
Sequence of Jnk1 (P45983 whole entry): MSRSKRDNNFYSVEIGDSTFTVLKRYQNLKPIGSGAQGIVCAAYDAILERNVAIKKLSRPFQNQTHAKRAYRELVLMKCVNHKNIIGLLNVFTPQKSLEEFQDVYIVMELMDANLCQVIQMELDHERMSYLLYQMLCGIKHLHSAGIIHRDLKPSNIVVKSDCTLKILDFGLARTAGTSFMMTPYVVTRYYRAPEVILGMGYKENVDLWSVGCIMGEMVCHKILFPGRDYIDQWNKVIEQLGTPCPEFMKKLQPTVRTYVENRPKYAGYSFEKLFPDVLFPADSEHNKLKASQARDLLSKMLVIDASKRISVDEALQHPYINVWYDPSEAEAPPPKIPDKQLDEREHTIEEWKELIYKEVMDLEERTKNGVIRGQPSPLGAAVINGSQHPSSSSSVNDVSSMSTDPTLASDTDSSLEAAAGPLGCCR
Sequence of TBK-1 (Q9UHD2 whole entry): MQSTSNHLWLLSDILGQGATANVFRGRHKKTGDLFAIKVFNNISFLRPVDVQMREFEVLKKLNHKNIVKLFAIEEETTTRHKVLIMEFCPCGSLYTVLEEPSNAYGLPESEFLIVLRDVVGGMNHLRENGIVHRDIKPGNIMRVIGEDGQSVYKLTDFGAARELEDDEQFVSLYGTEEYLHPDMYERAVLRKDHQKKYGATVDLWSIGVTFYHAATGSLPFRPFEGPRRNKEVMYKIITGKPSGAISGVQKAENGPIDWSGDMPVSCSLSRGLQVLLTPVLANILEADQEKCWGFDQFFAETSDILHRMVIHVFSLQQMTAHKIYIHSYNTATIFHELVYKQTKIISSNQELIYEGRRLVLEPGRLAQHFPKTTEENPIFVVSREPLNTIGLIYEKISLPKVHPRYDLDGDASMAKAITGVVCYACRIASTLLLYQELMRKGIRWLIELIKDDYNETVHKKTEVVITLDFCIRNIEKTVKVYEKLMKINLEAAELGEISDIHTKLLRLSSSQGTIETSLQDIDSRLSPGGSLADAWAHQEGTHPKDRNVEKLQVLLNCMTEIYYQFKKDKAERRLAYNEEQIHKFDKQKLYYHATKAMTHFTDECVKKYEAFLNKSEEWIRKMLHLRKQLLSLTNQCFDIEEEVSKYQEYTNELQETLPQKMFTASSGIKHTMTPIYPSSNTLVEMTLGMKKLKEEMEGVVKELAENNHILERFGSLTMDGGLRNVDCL
Sequence of IKKβ (O14920 whole entry): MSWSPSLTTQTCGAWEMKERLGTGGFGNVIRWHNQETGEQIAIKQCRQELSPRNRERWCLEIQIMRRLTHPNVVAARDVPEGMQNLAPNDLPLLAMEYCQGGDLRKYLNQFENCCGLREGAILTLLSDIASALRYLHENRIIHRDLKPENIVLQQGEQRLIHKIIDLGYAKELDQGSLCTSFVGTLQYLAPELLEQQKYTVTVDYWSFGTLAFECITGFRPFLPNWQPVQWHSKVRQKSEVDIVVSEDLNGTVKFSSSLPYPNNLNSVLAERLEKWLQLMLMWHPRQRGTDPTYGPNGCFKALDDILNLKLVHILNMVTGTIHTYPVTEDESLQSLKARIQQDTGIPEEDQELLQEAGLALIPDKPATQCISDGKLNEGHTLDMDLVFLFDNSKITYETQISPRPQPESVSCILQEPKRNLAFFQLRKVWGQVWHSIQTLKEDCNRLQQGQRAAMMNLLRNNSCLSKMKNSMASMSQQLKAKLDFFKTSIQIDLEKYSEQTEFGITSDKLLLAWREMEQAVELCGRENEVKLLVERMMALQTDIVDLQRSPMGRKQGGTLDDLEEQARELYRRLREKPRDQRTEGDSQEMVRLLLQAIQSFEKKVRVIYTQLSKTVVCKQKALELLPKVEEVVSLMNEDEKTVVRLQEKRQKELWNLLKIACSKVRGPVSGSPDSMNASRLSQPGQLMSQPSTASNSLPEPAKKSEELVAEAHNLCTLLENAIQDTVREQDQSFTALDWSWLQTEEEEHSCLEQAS
Sequence of Jnk3 (P53779 whole entry): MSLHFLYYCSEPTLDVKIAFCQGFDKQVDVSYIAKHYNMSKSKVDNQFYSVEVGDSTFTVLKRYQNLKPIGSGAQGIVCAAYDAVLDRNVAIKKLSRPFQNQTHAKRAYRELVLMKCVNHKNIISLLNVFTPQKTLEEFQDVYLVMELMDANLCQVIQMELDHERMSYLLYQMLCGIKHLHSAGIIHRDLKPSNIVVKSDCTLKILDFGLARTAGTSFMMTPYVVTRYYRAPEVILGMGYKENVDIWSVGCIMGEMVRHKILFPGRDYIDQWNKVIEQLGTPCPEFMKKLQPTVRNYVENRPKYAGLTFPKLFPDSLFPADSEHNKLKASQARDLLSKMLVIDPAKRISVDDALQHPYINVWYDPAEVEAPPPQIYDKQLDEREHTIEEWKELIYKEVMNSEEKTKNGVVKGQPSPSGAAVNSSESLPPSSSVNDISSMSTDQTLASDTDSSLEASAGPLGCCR

By inhibition is commonly meant the percentage by which the read-out fell short of the control. For the compound `CC(=O)Nc1ccc(Nc2nccc(-c3ccc(N4CC(O)C4)c(C#N)c3)n2)cn1` [DMX-66], the inhibition at 1 µM in assay [1] (10 μM ATP) turned out to be 52%; in assay [4] (setting [10]), 43%. The IC50 is 1000 nM in assay [1] (single point, 10 μM ATP); < 30 nM in assay [2] (setting [6]); 24 nM in assay [2] (setting [7]); < 30 nM in assay [3] (setting [8]); 21 nM in assay [3] (setting [9]); 1000 nM in assay [4] (10 μM ATP).
Turning to `N#Cc1cc(-c2ccnc(Nc3cccc(C(N)=O)c3)n2)ccc1N1CCCC1` [DMX-1, 3-[4-(3-cyano-4-pyrrolidin-1-yl-phenyl)-pyrimidin-2-ylamino]-benzamide], the IC50 in assay [1] (at the Km for ATP) was 254 nM; in assay [2] (setting [6]), < 30 nM; in assay [2] (setting [7]), 4 nM; in assay [3] (setting [8]), < 30 nM; in assay [3] (setting [9]), 2 nM; in assay [4] (1 μM ATP), 1000 nM. For the same compound, the IC50 in assay [5] was > 10000 nM. Moreover, the inhibition at 1 µM in assay [4] stood at 48%.
For `CC(=O)Nc1ccc(Nc2nccc(-c3ccc(N4CCCC4)c(C#N)c3)n2)cc1` [DMX-9], the IC50 in assay [1] (at the Km for ATP) is 262 nM; in assay [2] (setting [6]), < 30 nM; in assay [2] (setting [7]), 3 nM; in assay [3] (setting [8]), < 30 nM; in assay [3] (setting [9]), 3 nM; in assay [4] (1 μM ATP), 1000 nM. In addition, the IC50 in assay [5] turned out to be 10000 nM. The inhibition at 1 µM in assay [4] (setting [11]) came out at 34%. In addition, the inhibition at 10 µM in assay [5] (at the printed concentration (10000 nM), Km for ATP, read-out: Jnk-3 percentage inhibition (in brackets)) amounted to 51%.
For the compound `Cn1cc(Nc2nccc(-c3ccc(N4CCCC4)c(C#N)c3)n2)cn1` [DMX-56], the results for the inhibition at 1 µM in assay [1] (10 μM ATP) and in assay [4] (setting [10]) were 21% and 56%, respectively. Besides, the IC50 is > 1000 nM in assay [1] (single point, 10 μM ATP); < 30 nM in assay [2] (setting [6]); 3 nM in assay [2] (setting [7]); < 30 nM in assay [3] (setting [8]); 8 nM in assay [3] (setting [9]); 1000 nM in assay [4] (10 μM ATP).
For the compound `CN(C)CCNc1ccc(Nc2nccc(-c3ccc(N4CC[C@H](F)C4)c(C#N)c3)n2)cn1` [DMX-69], the inhibition at 1 µM was found to be 43% in assay [1] (10 μM ATP) and 54% in assay [4] (setting [10]). The IC50 in assay [1] (single point, 10 μM ATP) was 1000 nM; in assay [2] (setting [6]), < 30 nM; in assay [2] (setting [7]), 4 nM; in assay [3] (setting [8]) it was < 30 nM; in assay [3] (setting [9]) it was 4 nM; in assay [4] (10 μM ATP), 1000 nM.
With `N#Cc1cc(-c2ccnc(Nc3ccc(N4CCOCC4)nc3)n2)ccc1N1CCCC1` [DMX-16], the IC50 was 222 nM in assay [1] (at the Km for ATP); < 30 nM in assay [2] (setting [6]); 1 nM in assay [2] (setting [7]); < 30 nM in assay [3] (setting [8]); 2 nM in assay [3] (setting [9]); 1000 nM in assay [4] (1 μM ATP). In addition, the IC50 in assay [5] is > 10000 nM. Besides, in assay [4] (setting [11]), the inhibition at 1 µM is 43%.
On to `COc1ccc(Nc2nccc(-c3ccc(N4CCCC4)c(C#N)c3)n2)cn1` [DMX-58], for which the IC50 in assay [2] (setting [6]) and in assay [3] (setting [8]) was < 30 nM each time.
In the case of `CC(=O)Nc1ccc(Nc2nccc(-c3ccc(N4CCC(C(N)=O)CC4)c(C#N)c3)n2)cn1` [DMX-50, 1-{4-[2-(6-Acetylamino-pyridin-3-ylamino)-pyrimidin-4-yl]-2-cyano-phenyl}-piperidine-4-carboxylic acid amide], the IC50 in assay [2] (setting [6]) was 30 to 300 nM; in assay [3] (setting [8]) it was < 30 nM.
The like results for `CC(=O)Nc1ccc(Nc2nccc(-c3ccc(N4CC[C@H](O)C4)c(C#N)c3)n2)cn1` [DMX-48] were, in that order, < 30 nM and < 30 nM.
Regarding `Cc1cc(Nc2nccc(-c3ccc(N4CCCC4)c(C#N)c3)n2)on1` [DMX-26], the IC50 in assay [2] (setting [6]) and in assay [3] (setting [8]) was 30 to 300 nM in each case.
On to `N#Cc1cc(-c2ccnc(Nc3ccc4c(c3)CC(=O)N4)n2)ccc1N1CCCC1` [DMX-14], for which the IC50 in assay [1] (at the Km for ATP) was 201 nM; in assay [2] (setting [6]), < 30 nM; in assay [2] (setting [7]), 2 nM; in assay [3] (setting [8]) it was < 30 nM; in assay [3] (setting [9]), 3 nM; in assay [4] (1 μM ATP), 1000 nM. For the same compound, in assay [5], the IC50 was > 10000 nM. Moreover, the inhibition at 1 µM in assay [4] (setting [11]) is 45%.
Take `CN1CCC(Nc2ccc(Nc3nccc(-c4ccc(N5CC[C@@H](F)C5)c(C#N)c4)n3)cn2)CC1` [DMX-77]: the IC50 in assay [2] (setting [6]) and in assay [3] (setting [8]) was < 30 nM in each case.
Turning to `CC(=O)Nc1ccc(Nc2nccc(-c3ccc(N4CCOCC4)c(C#N)c3)n2)cn1` [DMX-46], the IC50 was < 30 nM in assay [2] (setting [6]) and 30 to 300 nM in assay [3] (setting [8]).
With `CN1CCN(c2ccc(Nc3nccc(-c4ccc(N5CC[C@H](O)C5)c(C#N)c4)n3)cn2)CC1` [DMX-54], the IC50 in assay [2] (setting [6]) and in assay [3] (setting [8]) was < 30 nM throughout.
`N#Cc1cc(-c2ccnc(Nc3ccc(C(N)=O)cc3)n2)ccc1N1CCCC1` [DMX-8]: the IC50 in assay [1] (at the Km for ATP) is 354 nM; in assay [2] (setting [6]) it was < 30 nM; in assay [2] (setting [7]) it was 3 nM; in assay [3] (setting [8]), < 30 nM; in assay [3] (setting [9]) it was 3 nM; in assay [4] (1 μM ATP), 1000 nM. Besides, in assay [5], the IC50 was > 10000 nM. In assay [4] (setting [11]), the inhibition at 1 µM stood at 50%.
For `CC(=O)N(C)c1ccc(Nc2nccc(-c3ccc(N4CCCC4)c(C#N)c3)n2)cc1` [DMX-37], the IC50 in assay [2] (setting [6]) and in assay [3] (setting [8]) was < 30 nM each time.
`CC(=O)Nc1ccc(Nc2nccc(-c3ccc(N4CCN(C)CC4)c(C#N)c3)n2)cn1` [DMX-47]: the IC50 in assay [2] (setting [6]) and in assay [3] (setting [8]) was 30 to 300 nM each time.
As to `N#Cc1cc(-c2ccnc(Nc3ccn(CC(N)=O)n3)n2)ccc1N1CCCC1` [DMX-59], the IC50 in assay [2] (setting [6]) and in assay [3] (setting [8]) was 30 to 300 nM each time.
As for `CN(C)CCNc1ccc(Nc2nccc(-c3ccc(N4CCC(C(N)=O)CC4)c(C#N)c3)n2)cn1` [DMX-64], the IC50 is 30 to 300 nM in assay [2] (setting [6]) and < 30 nM in assay [3] (setting [8]).
